According to ChEMBL document CHEMBL1201862, “PubChem BioAssay data set” (2004):
The source made the active and inactive calls.

Key:
[1] = biological target: Histone-lysine N-methyltransferase NSD2 (Homo sapiens, UniProt O96028); assay type: biochemical
[2] = biological target: Apoptotic protease-activating factor 1 (Homo sapiens, UniProt O14727); assay type: functional
[3] = biological target: T1, Small ubiquitin-related modifier 1 (Homo sapiens, UniProt P63165); assay: SUMO1 protein-protein binding blockers, potency – biochemical, FRET, dose response (AID 624383); assay type: functional; conditions: read-out: IC50_Mean
T1 sequence (P63165 whole entry): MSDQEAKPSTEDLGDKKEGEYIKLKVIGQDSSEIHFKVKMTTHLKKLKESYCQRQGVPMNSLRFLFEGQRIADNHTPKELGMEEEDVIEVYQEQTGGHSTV

[4] = biological target: Induced myeloid leukemia cell differentiation protein Mcl-1 (Homo sapiens, UniProt Q07820); assay type: functional
Sequence of Induced myeloid leukemia cell differentiation protein Mcl-1 (Q07820 whole entry): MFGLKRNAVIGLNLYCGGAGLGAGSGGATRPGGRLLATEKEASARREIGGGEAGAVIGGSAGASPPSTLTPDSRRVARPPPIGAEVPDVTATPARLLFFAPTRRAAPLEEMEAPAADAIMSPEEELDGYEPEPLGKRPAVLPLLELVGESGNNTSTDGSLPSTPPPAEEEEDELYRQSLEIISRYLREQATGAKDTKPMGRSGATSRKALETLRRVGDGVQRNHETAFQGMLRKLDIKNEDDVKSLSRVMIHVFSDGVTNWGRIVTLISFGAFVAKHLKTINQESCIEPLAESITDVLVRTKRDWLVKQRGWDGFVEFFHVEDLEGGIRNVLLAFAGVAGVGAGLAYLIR

[5] = biological target: T1, Small ubiquitin-related modifier 1; assay: SUMO1 protein interaction blockers, potency – biochemical, fluorescence polarization, uHTS hits, dose response (AID 624382); assay type: functional; conditions: read-out: IC50_Mean
[6] = tested on: Streptococcus sp. 'group A'; assay: Streptococcus pyogenes SK(-)GAS viability under kanamycin – luminescence, BacTiterGlo, confirmation, counter-screen for streptokinase expression inhibitor project, dose response (AID 1900); assay type: functional, organism-based
[7] = viability of uninfected HEp-2 cells – cell-based, HTS, cytotoxicity control for RSV inhibitor project, dose response (AID 2410); assay type: functional; conditions: human respiratory syncytial virus
Streptococcus = assay: GAS UMAA2166 growth inhibition – luminescence, BacTiterGlo, counter-screen for streptokinase expression inhibitor project, dose response (AID 1915); assay type: functional, organism-based;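 also: potency for reduction of bacterial viability or growth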
[8] = biological target: T2, Small ubiquitin-related modifier 2 (Homo sapiens, UniProt P61956); assay: disruption of SUMO2 interaction with SIM peptide – biochemical, fluorescence polarization, uHTS hits, selectivity assay for SUMO1 interaction inhibitor project, dose response (AID 624385); assay type: functional; conditions: read-out: IC50_Mean
T2 sequence (P61956 whole entry): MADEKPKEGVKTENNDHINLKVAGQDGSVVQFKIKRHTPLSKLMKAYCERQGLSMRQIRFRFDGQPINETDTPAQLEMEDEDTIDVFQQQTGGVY

Streptokinase A = biological target: T3, Streptokinase A (Streptococcus pyogenes serotype M1, UniProt P10520); assay: viability-normalized secreted streptokinase activity reduction – plasminogen activation absorbance, OD405, dose response (AID 1914); assay type: functional, Streptococcus pyogenes M1 GAS;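 also: secreted streptokinase activity via plasminogen activation per viability signal from cell pellet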
T3 sequence (P10520 whole entry): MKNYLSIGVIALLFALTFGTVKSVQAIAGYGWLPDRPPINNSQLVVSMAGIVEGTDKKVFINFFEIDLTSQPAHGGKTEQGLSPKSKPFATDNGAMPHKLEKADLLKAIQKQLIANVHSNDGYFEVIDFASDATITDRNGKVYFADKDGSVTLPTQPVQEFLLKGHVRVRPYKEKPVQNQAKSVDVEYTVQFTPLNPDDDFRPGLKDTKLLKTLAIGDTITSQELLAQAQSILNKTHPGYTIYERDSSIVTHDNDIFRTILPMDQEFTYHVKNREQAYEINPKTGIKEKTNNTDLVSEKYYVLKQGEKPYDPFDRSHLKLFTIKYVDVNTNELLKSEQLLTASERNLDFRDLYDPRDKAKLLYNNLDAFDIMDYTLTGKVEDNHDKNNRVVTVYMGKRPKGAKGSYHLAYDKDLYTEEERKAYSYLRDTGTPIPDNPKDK

[9] = biological target: T2, Small ubiquitin-related modifier 2; assay: SUMO2 binding disruption by SUMO1 hits – biochemical, FRET, human SUMO2, uHTS hits, selectivity assay for SUMO1 interaction inhibitor project, dose response (AID 624384); assay type: functional; conditions: read-out: IC50_Mean
[10] = HGIII-sPLA2 enzyme inhibition potency – biochemical, QFRET, IC50, dose response (AID 743457);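 also: green fluorescence rise as the enzyme cleaves BODIPY PC-A2 in liposomes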
Coagulation factor XII = biological target: T4, Coagulation factor XII (Homo sapiens, UniProt P00748); assay type: functional;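 also: activated factor XIIa alpha cleaving a fluorogenic AMC peptide substrate; inhibitor potency from loss of enzyme activity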
T4 sequence (P00748 whole entry): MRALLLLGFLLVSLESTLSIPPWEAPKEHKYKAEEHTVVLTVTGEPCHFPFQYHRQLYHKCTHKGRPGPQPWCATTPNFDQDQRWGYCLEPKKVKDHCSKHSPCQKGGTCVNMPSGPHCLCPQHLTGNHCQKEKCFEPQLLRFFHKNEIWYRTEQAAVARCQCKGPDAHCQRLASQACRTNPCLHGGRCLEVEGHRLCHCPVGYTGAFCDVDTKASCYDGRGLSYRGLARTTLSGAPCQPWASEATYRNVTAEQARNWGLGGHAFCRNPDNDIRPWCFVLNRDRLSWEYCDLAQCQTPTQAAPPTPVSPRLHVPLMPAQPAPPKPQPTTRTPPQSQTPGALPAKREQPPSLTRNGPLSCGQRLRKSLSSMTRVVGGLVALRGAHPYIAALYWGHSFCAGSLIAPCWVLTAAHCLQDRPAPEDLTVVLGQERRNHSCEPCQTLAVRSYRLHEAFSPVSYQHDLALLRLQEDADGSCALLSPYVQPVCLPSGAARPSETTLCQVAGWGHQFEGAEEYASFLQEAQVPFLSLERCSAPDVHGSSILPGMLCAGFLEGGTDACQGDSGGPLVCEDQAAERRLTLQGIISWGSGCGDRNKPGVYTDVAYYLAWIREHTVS

[11] = biological target: T5, Methionyl-tRNA synthetase, putative (Trypanosoma brucei brucei, UniProt Q38C91); assay type: functional, Trypanosoma brucei brucei strain 927/4 GUTat10.1
T5 sequence (Q38C91 whole entry): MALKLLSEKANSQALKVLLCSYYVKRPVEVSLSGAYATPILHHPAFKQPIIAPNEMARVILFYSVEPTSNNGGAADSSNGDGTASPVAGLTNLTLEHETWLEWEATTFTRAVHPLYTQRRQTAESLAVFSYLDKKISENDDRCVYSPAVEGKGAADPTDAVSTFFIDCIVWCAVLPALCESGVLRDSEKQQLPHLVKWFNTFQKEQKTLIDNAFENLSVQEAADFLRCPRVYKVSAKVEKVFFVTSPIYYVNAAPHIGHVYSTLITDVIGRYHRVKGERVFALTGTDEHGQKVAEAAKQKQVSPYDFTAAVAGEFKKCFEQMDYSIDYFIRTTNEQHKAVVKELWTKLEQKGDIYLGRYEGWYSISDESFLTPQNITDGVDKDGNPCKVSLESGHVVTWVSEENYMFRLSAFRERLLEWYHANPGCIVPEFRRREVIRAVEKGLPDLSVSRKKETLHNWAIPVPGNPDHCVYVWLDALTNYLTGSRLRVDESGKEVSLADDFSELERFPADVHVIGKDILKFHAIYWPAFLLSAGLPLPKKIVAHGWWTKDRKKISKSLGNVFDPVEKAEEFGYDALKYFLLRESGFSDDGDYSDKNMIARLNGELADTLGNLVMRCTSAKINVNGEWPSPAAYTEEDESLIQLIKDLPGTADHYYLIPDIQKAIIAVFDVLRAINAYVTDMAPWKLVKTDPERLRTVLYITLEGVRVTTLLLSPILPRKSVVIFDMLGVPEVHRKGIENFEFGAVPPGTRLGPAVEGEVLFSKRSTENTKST

HeLa = assay: ATP-based viability loss in HeLa cells – cell-based, CellTiter-Glo luminescence, cherry-pick samples, cytotoxicity control for MITF activator project, dose response (AID 540259); assay type: functional; conditions: Homo sapiens
[12] = biological target: T5, Methionyl-tRNA synthetase, putative; assay type: functional, Trypanosoma brucei brucei strain 927/4 GUTat10.1; remark: listed apart in the source
[13] = Counterscreen for inhibitors of Trypanosoma brucei methionyl tRNA synthetase (MetRS): Luminescence-based cell-based high throughput dose response assay to identify compounds that are cytotoxic to Jurkat human T lymphocyte cells.; assay type: functional
[14] = biological target: Photoreceptor-specific nuclear receptor (Homo sapiens, UniProt Q9Y5X4); assay type: functional, cell-based;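 also: CHO-S cells with Gal4-NCOR and VP16-NR2E3 two-hybrid luciferase reporter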
Sequence of Photoreceptor-specific nuclear receptor (Q9Y5X4 whole entry, the tested form may be a part): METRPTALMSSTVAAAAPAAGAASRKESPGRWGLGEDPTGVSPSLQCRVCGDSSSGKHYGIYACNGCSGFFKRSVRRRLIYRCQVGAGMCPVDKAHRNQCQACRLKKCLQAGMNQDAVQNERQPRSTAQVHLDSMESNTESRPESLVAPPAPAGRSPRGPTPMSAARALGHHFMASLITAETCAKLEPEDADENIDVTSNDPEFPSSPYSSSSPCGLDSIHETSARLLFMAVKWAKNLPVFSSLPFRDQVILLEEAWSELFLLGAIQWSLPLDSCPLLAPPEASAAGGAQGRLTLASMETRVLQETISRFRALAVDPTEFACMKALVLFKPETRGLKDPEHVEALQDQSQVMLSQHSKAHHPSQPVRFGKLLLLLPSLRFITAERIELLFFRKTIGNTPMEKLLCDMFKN

[15] = Trypanosoma cruzi growth suppression in host cells – NIH3T3 host cells, beta-gal luminescence, confirmation (AID 2044); assay type: functional, cell-based;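 also: intracellular parasites grown in NIH/3T3 mouse fibroblasts as host cells; luminescent beta-galactosidase reporter signal from transgenic T. cruzi replicating inside host cells; inhibitors lower the luminescence signal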
[16] = NIH3T3 cell viability loss – ATP luminescence, mouse fibroblasts, counter-screen, dose response (AID 2010); assay type: functional, cell-based;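 also: cells exposed to compound for about 90 hours before reading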
BHK-21 = assay: viability loss in BHK-21 cells – cell-based, plate reader, cherry-pick samples, cytotoxicity control, dose response (AID 687030); assay type: functional; conditions: Mesocricetus auratus
[17] = biological target: T6, Corticotropin-releasing factor receptor 2/Corticotropin-releasing factor-binding protein (Homo sapiens, UniProt P24387+Q13324); assay: Dose Response confirmation of uHTS hits for small molecule antagonists of the CRF-binding protein and CRF-R2 receptor complex.; assay type: functional; conditions: read-out: IC50_Mean
T6 sequence (Q13324 whole entry): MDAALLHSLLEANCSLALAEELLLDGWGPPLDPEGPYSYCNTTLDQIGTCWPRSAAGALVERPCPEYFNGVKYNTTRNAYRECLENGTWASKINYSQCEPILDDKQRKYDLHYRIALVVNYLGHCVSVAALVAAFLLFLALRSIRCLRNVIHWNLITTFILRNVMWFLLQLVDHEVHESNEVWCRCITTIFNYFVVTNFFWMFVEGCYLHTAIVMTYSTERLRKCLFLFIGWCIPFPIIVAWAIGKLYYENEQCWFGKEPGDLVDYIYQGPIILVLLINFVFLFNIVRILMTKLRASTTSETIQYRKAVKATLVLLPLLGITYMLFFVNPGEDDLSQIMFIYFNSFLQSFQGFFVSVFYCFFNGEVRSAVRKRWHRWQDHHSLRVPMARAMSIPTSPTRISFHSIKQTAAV
T6 sequence (P24387 whole entry): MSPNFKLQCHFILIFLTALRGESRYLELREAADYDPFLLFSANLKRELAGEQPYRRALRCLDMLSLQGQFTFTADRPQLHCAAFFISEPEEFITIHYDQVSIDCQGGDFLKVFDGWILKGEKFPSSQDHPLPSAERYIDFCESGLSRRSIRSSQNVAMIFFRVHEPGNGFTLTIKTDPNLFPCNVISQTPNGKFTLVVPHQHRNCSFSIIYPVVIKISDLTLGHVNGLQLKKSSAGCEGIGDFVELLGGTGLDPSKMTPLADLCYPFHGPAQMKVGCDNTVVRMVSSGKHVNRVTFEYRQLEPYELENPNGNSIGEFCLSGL

[18] = microbe, parasite or virus in culture; assay type: functional; conditions: Mycobacterium tuberculosis
[19] = biological target: T6, Corticotropin-releasing factor receptor 2/Corticotropin-releasing factor-binding protein; assay: activators of CRF receptor 2 with binding protein – uHTS hits, confirmation (AID 602473); assay type: functional; conditions: read-out: EC50_Mean
[20] = blockers of CRF-binding protein–CRF-R2 complex – cell-based, uHTS hits, 384-well, dose response (AID 651639); assay type: functional, Homo sapiens; conditions: read-out: IC50_Mean

Sequence of Histone-lysine N-methyltransferase NSD2 (O96028 whole entry): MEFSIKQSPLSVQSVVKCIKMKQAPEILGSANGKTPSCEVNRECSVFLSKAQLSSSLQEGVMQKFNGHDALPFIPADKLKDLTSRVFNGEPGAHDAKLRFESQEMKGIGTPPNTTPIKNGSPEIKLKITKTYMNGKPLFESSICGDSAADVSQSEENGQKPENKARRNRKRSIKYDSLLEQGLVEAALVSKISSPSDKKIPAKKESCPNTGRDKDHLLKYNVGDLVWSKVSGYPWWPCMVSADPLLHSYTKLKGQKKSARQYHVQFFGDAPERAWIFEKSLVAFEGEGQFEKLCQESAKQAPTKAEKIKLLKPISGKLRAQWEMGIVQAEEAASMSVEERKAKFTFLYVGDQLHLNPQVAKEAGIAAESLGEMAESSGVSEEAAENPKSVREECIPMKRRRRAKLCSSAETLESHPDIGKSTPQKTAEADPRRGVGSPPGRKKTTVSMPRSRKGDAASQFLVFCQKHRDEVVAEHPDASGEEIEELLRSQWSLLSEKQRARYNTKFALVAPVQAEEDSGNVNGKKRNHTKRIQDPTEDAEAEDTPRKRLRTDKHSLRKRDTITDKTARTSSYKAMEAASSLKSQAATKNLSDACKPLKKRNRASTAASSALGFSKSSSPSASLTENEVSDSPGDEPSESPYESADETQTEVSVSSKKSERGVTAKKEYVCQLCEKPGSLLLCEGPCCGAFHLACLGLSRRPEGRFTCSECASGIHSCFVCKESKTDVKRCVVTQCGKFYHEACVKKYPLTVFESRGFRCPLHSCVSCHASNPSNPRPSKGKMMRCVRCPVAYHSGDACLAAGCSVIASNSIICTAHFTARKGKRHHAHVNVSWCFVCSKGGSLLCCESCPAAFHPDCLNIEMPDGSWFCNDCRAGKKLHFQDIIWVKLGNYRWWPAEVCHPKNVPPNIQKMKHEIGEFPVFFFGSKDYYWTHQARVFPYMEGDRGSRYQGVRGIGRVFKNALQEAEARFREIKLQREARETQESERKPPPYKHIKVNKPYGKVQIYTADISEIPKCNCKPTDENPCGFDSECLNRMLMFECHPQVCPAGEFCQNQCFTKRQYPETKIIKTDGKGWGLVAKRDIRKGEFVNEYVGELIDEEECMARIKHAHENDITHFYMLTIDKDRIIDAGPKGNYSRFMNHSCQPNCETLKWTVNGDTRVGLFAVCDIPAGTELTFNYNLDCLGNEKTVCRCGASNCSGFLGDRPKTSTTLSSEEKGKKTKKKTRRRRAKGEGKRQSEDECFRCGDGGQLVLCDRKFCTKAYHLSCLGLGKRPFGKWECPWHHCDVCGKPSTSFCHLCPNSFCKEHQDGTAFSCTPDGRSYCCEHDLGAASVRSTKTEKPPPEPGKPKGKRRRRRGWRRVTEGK
Sequence of Apoptotic protease-activating factor 1 (O14727 whole entry): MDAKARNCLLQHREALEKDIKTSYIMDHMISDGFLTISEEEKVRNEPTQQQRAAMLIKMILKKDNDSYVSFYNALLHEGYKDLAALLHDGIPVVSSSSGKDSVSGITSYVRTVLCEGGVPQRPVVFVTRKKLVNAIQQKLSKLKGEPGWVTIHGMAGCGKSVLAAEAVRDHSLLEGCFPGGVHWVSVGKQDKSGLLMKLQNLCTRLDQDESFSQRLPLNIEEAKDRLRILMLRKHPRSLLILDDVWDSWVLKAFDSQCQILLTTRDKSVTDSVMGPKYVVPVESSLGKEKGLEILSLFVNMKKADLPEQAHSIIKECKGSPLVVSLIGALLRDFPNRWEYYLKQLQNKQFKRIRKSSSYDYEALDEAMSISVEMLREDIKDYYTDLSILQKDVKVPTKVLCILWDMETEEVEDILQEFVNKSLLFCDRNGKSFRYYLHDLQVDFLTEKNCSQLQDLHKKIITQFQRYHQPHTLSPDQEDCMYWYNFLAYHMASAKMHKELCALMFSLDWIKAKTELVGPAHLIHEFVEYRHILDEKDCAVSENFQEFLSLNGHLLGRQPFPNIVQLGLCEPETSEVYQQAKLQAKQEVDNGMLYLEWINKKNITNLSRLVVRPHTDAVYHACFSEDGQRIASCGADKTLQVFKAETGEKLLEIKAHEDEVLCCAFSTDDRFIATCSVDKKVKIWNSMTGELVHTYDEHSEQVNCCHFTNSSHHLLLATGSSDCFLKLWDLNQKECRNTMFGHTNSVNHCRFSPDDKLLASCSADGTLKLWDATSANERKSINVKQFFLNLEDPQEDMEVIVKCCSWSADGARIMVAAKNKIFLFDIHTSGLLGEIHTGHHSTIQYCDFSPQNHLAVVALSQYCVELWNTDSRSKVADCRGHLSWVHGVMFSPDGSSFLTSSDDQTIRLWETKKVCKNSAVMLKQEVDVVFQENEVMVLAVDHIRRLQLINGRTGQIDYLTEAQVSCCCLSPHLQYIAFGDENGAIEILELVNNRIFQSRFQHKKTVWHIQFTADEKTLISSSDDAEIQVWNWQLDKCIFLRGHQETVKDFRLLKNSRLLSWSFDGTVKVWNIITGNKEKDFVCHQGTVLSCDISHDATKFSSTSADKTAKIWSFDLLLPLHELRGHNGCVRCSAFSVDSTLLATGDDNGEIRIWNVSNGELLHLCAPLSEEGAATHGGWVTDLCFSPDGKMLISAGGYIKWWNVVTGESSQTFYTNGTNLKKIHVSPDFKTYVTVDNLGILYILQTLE

With `O=C1C(Cl)=C(NCCN2CCOCC2)C(=O)c2ccccc21` the AC50 [1] was 10.8 µM (active) and the IC50 [2] was 22 µM (active).

With `COc1ccc(O)c(C(=O)c2cc(SCC(=O)O)c3nc4sc5c(c4c(=O)n3c2)CCCC5)c1` the IC50 [3] was 51.6 µM (inactive), the IC50 [4] was 1.49 µM (active) and the IC50 [5] was 2.14 µM (active). The EC50 [6] was 2.67 µM (active), the CC50 [7] was 29.1 µM (active) and the EC50 (Streptococcus) was 18.5 µM (inconclusive). For the same compound, the IC50 [8] was 6.24 µM (active), the EC50 (Streptokinase A) was 16.4 µM (inconclusive) and the IC50 [9] was 46.2 µM (inactive).

In the case of `Cc1ccccc1N=C(S)c1nc2ccccc2[nH]1`, the IC50 [10] was > 122 µM (inactive).

For `O=C(Cn1c(/C=C/c2ccccc2)nc2ccccc21)Nc1ccc(F)cc1`, the IC50 (Coagulation factor XII) was > 50 µM (inactive), the IC50 [11] was 8.74 µM (active) and the AC50 (HeLa) was 301 µM (active). The IC50 [12] was 12.2 µM (inactive) and the IC50 [13] was 83.3 µM (inactive).

In the case of `CCc1nnc(NC(=O)c2ccc(S(=O)(=O)N3CCCc4ccccc43)cc2)o1`, the EC50 [6] was 1.21 µM (active), the EC50 (Streptococcus) was 13.3 µM (active) and the IC50 [14] was 4.33 µM (active). The EC50 (Streptokinase A) was > 150 µM (not active), the EC50 [15] was 2.19 µM (active) and the EC50 [16] was 5.54 µM (active).

For `NNC(=O)c1ccc(-c2ccccc2F)cc1`, the AC50 (BHK-21) was 19.3 µM (active).

With `Cc1cccc(N(C(=O)c2nsc(Cl)c2Cl)C(C(=O)NC2CCCC2)c2ccc(O)cc2)c1C` (stereo not drawn) the IC50 [17] was 6.4 µM (active), the CC50 [18] was 39 µM (active) and the EC50 [19] was > 53 µM (inactive). For the same compound, the IC50 [20] was > 20 µM (inactive).
